How the values were obtained:
[1] = system: C6; assay: HSF produced by bone marrow-derived stromal cell lines C6.4 on stimulation with the compound at (1000 ng/mL) was determined in vitro in an GM-CFC assay.; format: functional, Mus musculus
[2] = system: C6; assay: Neutralization of colony - stimulating activity was determined by incubating supernatants from stromal cells stimulated by compound (1000 ng/mL) with an antibody raised against KC[38-72].; format: functional, Mus musculus
[3] = in the assay text read “100 ng/mL” for “1000 ng/mL”

SMILES	HSF [1]	further results
O=C(N[C@H](CO)C(=O)O)c1cccnc1C(=O)N[C@@H](CO)C(=O)O	0 units/mL	–
O=C(NC(CO)C(=O)O)c1nccnc1C(=O)N[C@@H](CO)C(=O)O (single isomer, unassigned)	0 units/mL	–
O=C(N[C@H](CO)C(=O)O)c1nccnc1C(=O)N[C@H](CO)C(=O)O	–	HSF [2, 3]: 0 units/mL
O=C(N[C@@H](CO)C(=O)O)c1cccnc1C(=O)N[C@H](CO)C(=O)O	1.2e+06 units/mL	–
NCCCC[C@H](NC(=O)[C@H](CCCC[C@H](NC(=O)[C@H](CC(=O)O)NC(=O)[C@H](CO)NC(=O)c1cc2ccccc2[nH]1)C(=O)N[C@@H](CCCCN)C(=O)O)NC(=O)[C@H](CC(=O)O)NC(=O)[C@H](CO)NC(=O)c1cc2ccccc2[nH]1)C(=O)O	0 units/mL	–
NCCCC[C@H](NC(=O)[C@H](CCCC[C@H](NC(=O)[C@H](CC(=O)O)NC(=O)[C@H](CO)NC(=O)c1ccc2ccccc2n1)C(=O)N[C@@H](CCCCN)C(=O)O)NC(=O)[C@H](CC(=O)O)NC(=O)[C@H](CO)NC(=O)c1ccc2ccccc2n1)C(=O)O	0 units/mL	–
NCCCC[C@H](NC(=O)[C@H](CCCC[C@H](NC(=O)[C@H](CC(=O)O)NC(=O)[C@H](CO)NC(=O)c1nccc2ccccc12)C(=O)N[C@@H](CCCCN)C(=O)O)NC(=O)[C@H](CC(=O)O)NC(=O)[C@H](CO)NC(=O)c1nccc2ccccc12)C(=O)O	0 units/mL	–
NCCCC[C@H](NC(=O)[C@H](CCCC[C@H](NC(=O)[C@H](CC(=O)O)NC(=O)[C@H](CO)NC(=O)c1cnccn1)C(=O)N[C@@H](CCCCN)C(=O)O)NC(=O)[C@H](CC(=O)O)NC(=O)[C@H](CO)NC(=O)c1cnccn1)C(=O)O	120000 units/mL	–
O=C(N[C@@H](CO)C(=O)O)c1ccccc1C(=O)N[C@H](CO)C(=O)O	0 units/mL	–
NCCCC[C@H](NC(=O)[C@H](CCCC[C@H](NC(=O)[C@H](CC(=O)O)NC(=O)[C@H](CO)NC(=O)c1ncccc1O)C(=O)N[C@@H](CCCCN)C(=O)O)NC(=O)[C@H](CC(=O)O)NC(=O)[C@H](CO)NC(=O)c1ncccc1O)C(=O)O	2.8e+06 units/mL	–
NCCCC[C@H](NC(=O)[C@H](CCCC[C@H](NC(=O)[C@H](CC(=O)O)NC(=O)[C@H](CCC(=O)O)NC(=O)[C@@H]1CCC(=O)N1)C(=O)N[C@@H](CCCCN)C(=O)O)NC(=O)[C@H](CC(=O)O)NC(=O)[C@H](CCC(=O)O)NC(=O)[C@@H]1CCC(=O)N1)C(=O)O [GLASPIMOD]	–	HSF [2]: 0 units/mL
CC(=O)Nc1cccc(C(=O)N[C@@H](CO)C(=O)N[C@@H](CC(=O)O)C(=O)N[C@@H](CCCC[C@H](NC(=O)[C@H](CC(=O)O)NC(=O)[C@H](CO)NC(=O)c2cccc(NC(C)=O)n2)C(=O)N[C@@H](CCCCN)C(=O)O)C(=O)N[C@@H](CCCCN)C(=O)O)n1	2.4e+06 units/mL	–
NCCCC[C@H](NC(=O)[C@H](CCCC[C@H](NC(=O)[C@H](CC(=O)O)NC(=O)[C@H](CO)NC(=O)c1ccc[nH]1)C(=O)N[C@@H](CCCCN)C(=O)O)NC(=O)[C@H](CC(=O)O)NC(=O)[C@H](CO)NC(=O)c1ccc[nH]1)C(=O)O	1e+06 units/mL	–
O=C(N[C@@H](CO)C(=O)O)c1nccnc1C(=O)N[C@H](CO)C(=O)O	–	HSF [2, 3]: 0 units/mL

Reference: ChEMBL document CHEMBL1130138, “Design of low molecular weight hematoregulatory agents from the structure-activity relationship of a dimeric pentapeptide” (1997)
